This is an account of results in a melting point compilation (Tetko et al.; mined from patent text by program, amines drawn as free bases though some values may be those of a salt).

Structures are written as SMILES.

In the case of `Cc1cc(-n2ccnc2)c2cccc(OCc3c(Cl)ccc(S(=O)(=O)N4CCC[C@H]4C(=O)N(C)CCN(C)CCCO)c3Cl)c2n1`, the melting point – broadly, the temperature of the solid-liquid transition – was determined as 98 °C.
Consider `CCCNc1onc2c1c(=O)n(C)c(=O)n2C`, for which the melting point was 164 to 166 °C.
The result for `N#CC(C(=O)Nc1ccccc1)C(=O)c1nn(-c2ccccc2)c2c1CSc1ccc(NC(=O)CN)cc1-2` (configuration not stated) reads 218 to 221 °C; that for `COc1ccc(CSc2nnc(-c3ccc4nccn4c3)o2)cc1`, 155 to 156 °C; that for `Cc1nc(-c2ccc(Br)cc2)sc1C(=O)N[C@H](C)[C@](O)(Cn1cncn1)c1ccc(F)cc1F`, 165 to 166 °C.
Compound `Cc1sc(-c2cccc(F)c2)nc1O` gave a melting point of 162 to 163 °C.
`COC(=O)C1CCn2c1cc(Cl)c2C(=O)c1ccccc1` (configuration not stated) showed a melting point of 106 °C.
The result for `Cc1[nH]nc(Oc2c(Cl)cc(C(F)(F)F)cc2Cl)c1Cl` reads 156 to 158 °C; that for `NC1(C(=O)O)CC(O)C2C(C(=O)O)C21` (configuration not stated), 78 to 80 °C.
The result for `CCCCCCCNC(=O)Nc1ccccc1C(=O)NC1CCN(CCSc2nc(-c3ccccc3)c(-c3ccccc3)[nH]2)CC1` reads 160 to 161 °C.
`O=C(Nc1ccc(C(=O)N2Cc3cccnc3Nc3ccccc32)c(Cl)c1)c1ccccc1-c1ccccc1` yielded a melting point of 147 to 165 °C.
The result for `COC(=O)c1ccc(CCl)nc1C1=NC(C)(C(C)C)C(=O)N1` (configuration not stated) reads 127 to 129 °C; that for `Cc1cn(C(C)C(=O)N(C)C)nc1-c1ccccc1Br` (configuration not stated), 102 to 104 °C; that for `NC(N)=NC(=O)Cn1c(Cl)ccc1Cl`, 224 to 225 °C.
The result for `CNC(=O)C(NC(=O)C(CC(=O)O)N1C=CN(c2ccc(-c3ccccc3)cc2)C1)C(C)(C)C` (mixture of isomers) reads 187 to 188 °C.
The result for `CN(C)C(=O)C1CC(=O)N(c2cc(C(F)(F)F)cc(C(F)(F)F)c2)C1` (configuration not stated) reads 84.5 to 86 °C.
Compound `COc1ccc(C(=O)c2cccc3c2ccn3S(=O)(=O)c2ccc(C)cc2)cc1` showed a melting point of 135 °C.
The result for `O=C1Cc2ccc(-c3cnc4[nH]c(=O)n(CC5CCCCC5)c4n3)cc2N1` reads 334 to 336 °C; that for `C[C@@H](Cc1c2n(c3ccc(OC4CC4)cc13)CCC2)NC(=O)OC(C)(C)C`, 83 to 84 °C; that for `CCC(=O)Cc1ccc(C(=O)Nc2ccc3cc(CN4CCCC4)cnc3c2C)cc1`, 157 °C.
The result for `COC(=O)Nc1cccc(CC(C)N)c1` (configuration not stated) reads 93 to 95 °C; that for `O=C1N(CCCCCl)CCN1c1ccccc1`, 47.5 to 49 °C; that for `CN(C)c1c(F)c(F)c(F)c2c1c(=O)c(C(=O)O)cn2C1COC1`, 173 to 175 °C.
The result for `OC(COc1cccc2c1SCCC2)CN1CCC(c2ccccc2)CC1` (configuration not stated) reads 104 °C; that for `COC(=O)c1cc2cc(OC)c(OCCCl)cc2nc1N=CN(C)C`, 108 to 110 °C; that for `CCOc1cc2c(cc1O)C(=O)CC1C2CCC2(C)C(O)CCC12` (configuration not stated), 194 to 196 °C.
In the case of `O=C(NC(=O)N1CCC(COc2ccccc2)CC1)c1ccc(O)cc1`, the melting point was 207 °C.
The result for `N#CCCc1cccc(-c2nc(=O)c3ccccc3s2)n1` reads 157 °C.
The result for `CCCCc1nc(CC(=O)OC)c(Cl)n1Cc1ccc(NC(=O)c2ccccc2C(=O)O)cc1` reads 150 to 152 °C; that for `Cc1ccc(-c2nc(C)c3ccccc3n2)nc1-c1ccccc1`, 141 to 143 °C.
The result for `Cn1c(CNCC2CCOC2)cc2cc(NC(=O)c3ccc(OC[C@@H]4CCCO4)cc3)ccc21` (some centres not stated) reads 128 to 129 °C; that for `CCOCc1nc2c(N)nc(C)c(C)c2n1CCOCCCc1nccs1`, 91 to 92 °C; that for `Nc1c(N=O)c(=O)n(CC2CCC2)c(=O)n1CC1CCC1`, 251 to 252 °C.
In turn, `CC(C#N)Oc1cccc(CN2C(=O)c3cccc(NC(=O)c4ccc(Cl)s4)c3C2=O)c1` (configuration not stated) showed a melting point of 88 °C.
The compound `COc1ccc(C(=O)Nc2nnn[nH]2)c(OC(C)C)c1` showed a melting point of 212 to 213 °C.
Compound `CN(C)c1cccc(OCC(=O)C=P(c2ccccc2)(c2ccccc2)c2ccccc2)c1` gave a melting point of 110 to 115 °C.
The result for `CCCCOCC(O)COc1ccc(-c2nc(OC)nc(-c3ccc(OCC(O)COCCCC)cc3O)n2)c(O)c1` (configuration not stated) reads 98 to 99 °C.
For `Cc1cc(Br)cc(C)c1OCC1CCC[N+](C)([O-])C1` (configuration not stated), the melting point fell in the range of 210 to 211 °C.
In turn, `O=C(O)c1cc2cc(CCNS(=O)(=O)c3ccc(Cl)cc3)ccc2o1` returned a melting point of 193 to 195 °C.
The result for `CC(C)Cc1cc2nnc(-c3ccccc3F)n2nc1OCc1ncnn1C` reads 134 to 136 °C; that for `CCC(=O)Nc1cccc(C2(c3cc(C(=O)CC)n(CC)c3)N=C(N)N(C)C2=O)c1` (configuration not stated), 120 to 141 °C; that for `CC(C)C(C)(N)C(N)=O` (single isomer, unassigned; (+)), 74.5 to 76 °C.
The result for `O=C(Nc1ccccc1)C1=C(Nc2ccccc2)COC1=O` reads 175 to 176 °C; that for `CC(=O)Oc1ccc(S(=O)(=O)ON=C(C#N)c2cccs2)cc1`, 114 to 115 °C; that for `CCCn1c(=O)c2[nH]c(/C=C/c3cccc(OC)c3OC)nc2n(CCC)c1=O`, 236 °C.
For the compound `COc1cc(C(C)=O)ccc1OCCN1C2CCC1CC(c1n[nH]c3cc(F)ccc13)C2` (configuration not stated), the melting point lay within 151 to 152 °C.
`CCCCCC(=O)Nc1ccn(C2OC(CO)C(O)C2O)c(=O)n1` (configuration not stated): the melting point fell in the range of 131 to 136 °C.
The result for `COCC(=O)Oc1cc(=O)n(-c2ccccc2)c2ncccc12` reads 155 to 157 °C; that for `N#CCC(=O)c1cccc(Oc2ccccc2)c1`, 95 to 96 °C.
Compound `O=C(NCCCO)c1cccc(-c2cccn3c(=O)n(Cc4cccc(C(F)(F)F)c4)nc23)c1` came in with a melting point of 148 to 149 °C.
`O=C(Nc1cccc(Br)c1)Oc1ccc2c(c1)CCCN2` displayed a melting point of 198 °C.
The result for `CCCOC(=O)c1c(Cn2ccnc2)nc2cc(OC)c(OC)cc2c1-c1ccc(OC)c(OC)c1` reads 166 to 168 °C.
`COc1cc2c(cc1C(=O)O)OCO2` displayed a melting point of 151 °C.
The result for `NC(=O)C(CCC(=O)O)N1Cc2c(N)cccc2C1=O` (configuration not stated) reads 334 to 336 °C; that for `CC(=O)N1CCN=C1c1ccc(NC(=O)C2=Cc3ccccc3OCC2)cc1`, 222 to 224 °C; that for `COc1ccc(-c2cc(=O)n(CCc3ccc(Cl)cc3)nc2-c2ccc(OC)cc2)cc1`, 133 to 134 °C.
The result for `COC(=O)C(=O)c1cc(OC)c(O)c([N+](=O)[O-])c1` reads 155 to 157 °C.
The result for `CC(=O)NCC1CC(c2cc(F)c(N3CCN(C(=O)CO)CC3)c(F)c2)=NO1` (single isomer, unassigned; (-)) reads 220 to 221 °C.
Regarding `CC(C)(C)CCNC(=O)c1ccc(C#N)cc1`, the melting point lay within 154 to 157 °C.
The result for `Nc1c(F)cc(Cn2ccnc2S)cc1F` reads 181 to 184 °C.
In turn, `COc1ccc(C(C)(C)C)cc1C=Cc1ccc(CCl)cc1` had a melting point of 103 to 104 °C.
For `CCN1C(=O)Nc2ccc(Cl)cc2C1(O)c1ccccc1` (configuration not stated), the melting point lay in the range of 182 to 184 °C.
